Q: For `CC1(C)CC(c2ccc(F)cc2)=C(c2ccc(S(N)(=O)=O)cc2)C1`, which melting point is on record?
A: 117 to 118 °C

Q: For `CC1=C(/C=C/S(=O)(=O)NC(C)C)[C@H](c2cccc([N+](=O)[O-])c2)C(C(=O)O[C@H](C)c2ccccc2)=C(C)N1`, which melting point is on record?
A: 198 to 201 °C

Q: With `Cc1nn(-c2ccccc2)c(C)c1CC(N)=O` as the compound, how does the melting point read?
A: 169 to 170 °C

Q: With `CNc1cc(F)ccc1C(=O)CS(=O)(=O)NC` as the compound, how does the melting point read?
A: 140 to 142 °C

Q: With `CC(=O)N(C#N)c1ccc(Cc2ccc(N(C#N)C(C)=O)cc2)cc1` as the compound, how does the melting point read?
A: 134 to 136 °C

Q: Which melting point does the source give for `COCN1C(=O)CN2CCOC2(c2ccccc2Cl)c2cc(Cl)ccc21` (centres undefined) here?
A: 144 to 147 °C

Q: Which melting point does the source give for `C1CCN(CCN2CCNCC2)CC1` here?
A: 60 to 62 °C

Q: For `OC1CSC(Oc2ccnc(-c3cccnc3)c2)C(O)C1O` (centres undefined), which melting point is on record?
A: 197 °C

Q: Which melting point does the source give for `FCCn1cc(-c2ccc3nnn(Cc4ccc5ncccc5c4)c3n2)cn1` here?
A: 168 to 170 °C

Q: Which melting point does the source give for `CCCCCOc1ccc(-c2ccc(-c3nc(N)nc(N)n3)cc2)cc1` here?
A: 246 to 249 °C

Q: Which melting point does the source give for `CCOc1nc(-c2cc(NC(=O)c3ccc(C)c(F)c3)ccc2C)c2c(n1)N(c1c(F)cccc1F)C(=O)NC2` here?
A: 257 to 262 °C

Q: Which melting point does the source give for `Cc1c(C(=O)O)sc2[nH]c(=O)c(=O)[nH]c12` here?
A: 289 to 294 °C

Q: For `COC(=O)c1ccc2c(c1)Sc1ccccc1CC2Br` (centres undefined), which melting point is on record?
A: 116 to 123 °C

Q: Which melting point does the source give for `COc1cc(N)c(Cl)cc1C(=O)NCC1CCN(CCCCNC(=O)c2ccccc2)CC1` here?
A: 165 to 168 °C

Q: For `O=C(NC1=NN(c2ccc(Cl)cc2)C(c2ccc(Cl)cc2)C1)C(F)(F)F` (centres undefined), which melting point is on record?
A: 138 to 140 °C

Q: With `COC(=O)/C=C/C1=C(C)C2(CCC1(C)C)SCCS2` as the compound, how does the melting point read?
A: 79.5 to 88.1 °C

Q: For `CCCC[N+]([O-])=Cc1ccc(OCc2ccccc2)c(OC)c1`, which melting point is on record?
A: 81.2 °C

Q: With `COc1cc2c(c(OC)c1/C=C/c1ccc(CO)cc1)C(C)(C)CCC2(C)C` as the compound, how does the melting point read?
A: 102 to 104 °C

Q: For `COc1ccc(-c2ccc3c(c2)c2c(Cl)ccnc2n3S(=O)(=O)c2ccccc2)cc1`, which melting point is on record?
A: 209 to 211 °C

Q: With `CCOC(=O)c1nnc(C(=O)OCC)c2c1[nH]c1ccccc12` as the compound, how does the melting point read?
A: 151 to 152 °C

Q: For `Cc1c(C)c2c(c(C)c1N)C(c1ccc(C(C)C)cc1)C1(CCCC1)O2` (centres undefined), which melting point is on record?
A: 132 to 133 °C

Q: With `COc1cc2ncc(C#N)c(Nc3ccc(F)c(Cl)c3)c2cc1NC(=O)C=CCN1C(C)CCCC1C` (centres undefined) as the compound, how does the melting point read?
A: 120 to 122 °C

Q: With `CCn1nc(O)nc1S` as the compound, how does the melting point read?
A: 193 to 195 °C

Q: With `CN1CCCc2ccc(NC(=O)/C=C/c3ccc(C(C)(C)C)cc3)cc21` as the compound, how does the melting point read?
A: 200 to 202 °C

Q: With `COc1ccc(-n2c(C)ccc2C)c(F)c1` as the compound, how does the melting point read?
A: 67 to 69 °C

Q: With `CCC1=C(C)CN(C(=O)NCC2CCOc3cc(O)c(S(N)(=O)=O)cc32)C1=O` (centres undefined) as the compound, how does the melting point read?
A: 175 °C

Q: For `CCCCCNC(=O)N(C)c1cccc(-c2ccc(CCC(=O)O)cc2OCCOCC)c1`, which melting point is on record?
A: 61 to 62 °C

Q: Which melting point does the source give for `Clc1nc(C(c2ccccc2)(c2ccccc2)n2ccnc2)nc(Cl)c1Cl` here?
A: 142 to 146 °C

Q: With `COCCOc1ccc(CCCNS(=O)(=O)c2ccccc2)c(Oc2ncc(C(F)(F)F)cc2Cl)c1` as the compound, how does the melting point read?
A: 94 to 95 °C

Q: With `CC(C)(C)NS(=O)(=O)c1ccccc1OC(F)(F)F` as the compound, how does the melting point read?
A: 137 °C

Q: Which melting point does the source give for `CCc1ccc(C=C2CCCN(c3nc(C)c(C(=O)NCc4ccccc4)s3)C2=O)s1` here?
A: 171 to 172 °C

Q: Which melting point does the source give for `Cc1cc(-c2cc(C(F)F)n3ncc(-c4nc(-c5ccc(N)nc5)no4)c3n2)ccc1C(F)(F)F` here?
A: 231 °C

Q: With `CN(C)C1(c2ccccc2)CCC(NC(=S)NCCc2c[nH]c3ccccc23)CC1` (centres undefined) as the compound, how does the melting point read?
A: 98 to 103 °C

Q: With `COc1cc2c(cc1I)CCC2=O` as the compound, how does the melting point read?
A: 140 °C

Q: Which melting point does the source give for `CC(=O)OCc1ccc(C(=O)O)cc1` here?
A: 120 to 123 °C

Q: Which melting point does the source give for `N#CC(N)=C(C#N)NCc1ccc(Cl)c(Cl)c1` here?
A: 158 to 160 °C

Q: With `CC#CC(Cc1ccccc1)n1nnc2cc3c(cc2c1=O)OC1CCCN1C3=O` (centres undefined) as the compound, how does the melting point read?
A: 160 to 162 °C

Q: With `Cc1ccc(N2C=NC3CCCCC3C2=O)cc1` (centres undefined) as the compound, how does the melting point read?
A: 79 to 82 °C

Q: With `CC(=O)OCC1CCCn2c(c(C3=C(c4cn(C)c5ccccc45)C(=O)OC3=O)c3ccccc32)C1` (centres undefined) as the compound, how does the melting point read?
A: 164 to 166 °C
